Experimental data as given in ChEMBL document CHEMBL5030524, “Discovery of Cyclic Peptidomimetic Ligands Targeting the Extracellular Domain of EGFR” (J Med Chem, 2021).
Active and inactive are the calls of the source. The calls are words filed in the database; no cut-off is given here.

Tests used:
[1] = Oral bioavailability in human; type: ADME, organism-based; conditions: in vivo
[2] = Stability of the compound assessed as pronase (unknown origin)-mediated drug degradation measured after 20 hrs by HPLC analysis; type: ADME; conditions: bacteria
[3] = tested on: A549; assay: Antiproliferative activity against human serum starved A549 cells assessed as reduction in cell viability after 48 hrs in presence of EGF by CCK8 assay; type: functional, cell-based; conditions: A549, 48 h
[4] = tested on: A549; assay: Antimigratory activity against human A549 cells assessed as inhibition of cell migration at 25 uM measured after 30 hrs by scratch wound healing assay (reference value: 55.3 %); type: functional; set-up: scale not given: the % may be the effect or the level left
[5] = tested on: A549; assay: Antitumor activity against human A549 cells xenografted in athymic nude Ncr/nu mouse assessed as suppression of tumor growth at 50 mg/kg, ip administered once every 2 days for seven days; type: functional, organism-based; conditions: time 7.0 day
[6] = target: T1, Epidermal growth factor receptor (Homo sapiens, UniProt P00533); assay: Inhibition of EGFR in human A549 cells assessed as reduction in EGF-induced ERK phosphorylation measured after 4 hrs by Western blot analysis; type: cell-based
[7] = target: T1, Epidermal growth factor receptor; assay: Inhibition of […] EGFR phosphorylation in human A549 cells pretreated for 4 hr followed by EGF stimulation by Western blot analysis; type: cell-based
[8] = tested on: A549; assay: Antiproliferative activity against human serum starved A549 cells assessed as reduction in cell viability at 10 uM after 48 hrs by CCK8 assay relative to control; type: functional
[9] = tested on: HEK293; assay: Cytotoxicity against HEK293 cells assessed as reduction in cell viability after 48 hrs by CCK8 assay; type: cell-based; conditions: Homo sapiens, HEK293, 48 h
[10] = target: T1, Epidermal growth factor receptor; assay: Inhibition of […] EGFR phosphorylation in human A549 cells at 25 uM pretreated for 4 hr followed by EGF stimulation by Western blot analysis relative to control; type: cell-based
[11] = tested on: Mus musculus; assay: In vivo inhibition of EGFR in athymic nude Ncr/nu mouse xenografted with human A549 cell assessed as reduction in phosphorylated ERK expression at 50 mg/kg, ip administered every 2 days for 7 times measured after 6 days by immunohistochemical staining based analysis; type: functional, organism-based; conditions: time 6.0 day
[12] = target: T1, Epidermal growth factor receptor; assay: Inhibition of EGFR in human A549 cells assessed as reduction in EGF-induced Akt phosphorylation measured after 4 hrs by Western blot analysis; type: cell-based
[13] = tested on: A549; assay: Antitumor activity against human A549 cells xenografted in athymic nude Ncr/nu mouse assessed as suppression of tumor growth at 10 mg/kg, ip administered once every 2 days for seven times and measured after 6 day; type: functional, organism-based
[14] = target: T1, Epidermal growth factor receptor; assay: Binding affinity to EGFR (unknown origin) assessed as dissociation constant by fluorescence polarization assay
[15] = Selectivity ratio of IC50 for HEK293 cells to IC50 for human A549 cells; type: toxicity; conditions: HEK293 cells versus A549 cells, read-out: Ratio IC50
[16] = tested on: Mus musculus; assay: In vivo inhibition of EGFR in athymic nude Ncr/nu mouse xenografted with human A549 cell assessed as reduction in phosphorylated EGFR expression at 50 mg/kg, ip administered every 2 days for 7 times measured after 6 days by immunohistochemical staining based analysis; type: functional, organism-based; conditions: time 6.0 day
[17] = tested on: A549; assay: Antimigratory activity against human A549 cells assessed as inhibition of cell migration at 25 uM in presence of EGF by scratch wound healing assay (reference value: 133.9 %); type: functional; set-up: scale not given: the % may be the effect or the level left
[18] = Toxicity in athymic nude Ncr/nu mouse xenografted with human A549 cells assessed as effect on weight gain at 10 to 50 mg/kg, ip; type: organism-based; conditions: in vivo, 144 h, dose 10-50 mg/kg, time 6 day

T1 sequence (P00533 whole entry): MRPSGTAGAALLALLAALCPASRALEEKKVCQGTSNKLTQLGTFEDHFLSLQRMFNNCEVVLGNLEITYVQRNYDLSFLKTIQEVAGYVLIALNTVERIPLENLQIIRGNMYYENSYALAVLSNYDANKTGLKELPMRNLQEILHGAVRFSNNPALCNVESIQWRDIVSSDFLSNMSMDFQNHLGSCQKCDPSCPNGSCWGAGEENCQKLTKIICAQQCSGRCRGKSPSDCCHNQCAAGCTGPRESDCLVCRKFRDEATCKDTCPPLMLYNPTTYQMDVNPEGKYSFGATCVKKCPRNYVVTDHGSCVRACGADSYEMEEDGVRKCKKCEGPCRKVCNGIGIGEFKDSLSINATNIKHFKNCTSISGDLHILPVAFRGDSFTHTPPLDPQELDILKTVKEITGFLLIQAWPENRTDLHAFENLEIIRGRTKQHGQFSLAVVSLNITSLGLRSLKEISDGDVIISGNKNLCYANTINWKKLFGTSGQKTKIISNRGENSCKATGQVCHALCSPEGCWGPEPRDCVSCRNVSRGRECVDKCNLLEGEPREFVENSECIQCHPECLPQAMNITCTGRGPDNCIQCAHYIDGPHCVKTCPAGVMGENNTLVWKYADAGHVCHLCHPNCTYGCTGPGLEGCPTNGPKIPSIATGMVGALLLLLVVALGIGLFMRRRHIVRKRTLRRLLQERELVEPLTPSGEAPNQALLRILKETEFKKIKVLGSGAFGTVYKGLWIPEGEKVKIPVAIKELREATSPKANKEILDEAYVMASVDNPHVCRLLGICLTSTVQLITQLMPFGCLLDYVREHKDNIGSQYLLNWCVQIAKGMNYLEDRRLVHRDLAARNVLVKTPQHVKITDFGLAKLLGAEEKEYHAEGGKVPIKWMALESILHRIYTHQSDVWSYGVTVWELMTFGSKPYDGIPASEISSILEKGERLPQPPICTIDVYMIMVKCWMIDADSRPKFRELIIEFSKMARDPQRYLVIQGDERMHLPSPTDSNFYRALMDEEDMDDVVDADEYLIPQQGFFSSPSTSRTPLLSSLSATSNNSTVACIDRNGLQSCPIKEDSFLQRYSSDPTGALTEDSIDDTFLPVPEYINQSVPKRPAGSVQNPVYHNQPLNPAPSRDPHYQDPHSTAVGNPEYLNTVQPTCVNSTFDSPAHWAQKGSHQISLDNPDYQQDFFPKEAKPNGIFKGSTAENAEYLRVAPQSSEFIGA

bioavailability [1] [%]	Drug degradation [2]	IC50 [3] [µM]	inhibition [6]	IC50 [7] [µM]	inhibition [10] [%]	inhibition [12]	SMILES	Activity [4] [%]	Activity [5]	Activity [8] [%]	IC50 [9] [µM]	inhibition [11]	Activity [13]	Kd [14] [µM]	selectivity ratio [15]	inhibition [16]	Activity [17] [%]	Activity [18]
> 90	–	–	–	–	–	–	NC(=O)N1c2ccccc2C=Cc2ccccc21 [CARBAMAZEPINE]	–	–	–	–	–	–	–	–	–	–	–
–	Stable	8.36	Dose-Dependent Effect	17.7	100	Dose-Dependent Effect	COc1cc(CC(=O)N2CC(=O)N[C@@H](Cc3ccccc3)C(=O)N(CC(N)=O)C(=O)CCSCc3ccc(cc3)C(=O)N[C@@H](CCCCN)CN(C(=O)CCC3CCCCC3)CC(=O)N[C@@H](Cc3ccccc3)CN(C(=O)CCc3ccccc3)CC(=O)N[C@@H](Cc3ccccc3)C2)cc(OC)c1	15.2	Active	100	62.1	inactive	inactive	0.43	8	Active	64.8	Non-Toxic
–	–	–	–	–	–	–	CC(C)C[C@H]1CN(C(=O)Cc2ccc3c(c2)OCO3)CC(=O)N[C@@H](Cc2ccccc2)CN(C(=O)CCC2CCCCC2)CC(=O)N[C@@H](Cc2ccccc2)CN(C(=O)Cc2ccc3c(c2)OCO3)CC(=O)N[C@@H](CC(C)C)C(=O)N(CC(N)=O)C(=O)CCSCc2ccc(cc2)C(=O)N1	–	–	–	–	–	–	0.55	–	–	–	–
